# B1: Flag-EMI-domain-GPI (emilin-1 EMI domain tagged with the Flag epitope and bound to a GPI anchor) (other, not shown: small tags and cut ends; large carriers)
# chain: RHRNWCAYVVTRTVSCVLEDGVETYVKYQPCAWGQPQCPQSIMYRRFLRPRYRVAYKTVTDMEWRCCQGYGGDDCAE
# modifications: GPI (glycosylphosphatidylinositol) anchor at the COOH-terminal end
# notes: Expressed in transfected HEK293T cells and tested in cell extracts; also called EMI-domain-GPI-anchor; GPI anchored EMI domain
# B2: emilin 1-KDEL: emilin 1 with KDEL sequence inserted upstream the STOP codon; retained intracellularly, not secreted (protein)
# chain: ASYPPRGFSLYTGSSGALSPGGPQAQIAPRPASRHRNWCAYVVTRTVSCVLEDGVETYVKYQPCAWGQPQCPQSIMYRRFLRPRYRVAYKTVTDMEWRCCQGYGGDDCAESPAPALGPASSTPRPLARPARPNLSGSSAGSPLSGLGGEGPGESEKVQQLEEQVQSLTKELQGLRGVLQGLSGRLAEDVQRAVETAFNGRQQPADAAARPGVHETLNEIQHQLQLLDTRVSTHDQELGHLNNHHGGSSSSGGSRAPAPASAPPGPSEELLRQLEQRLQESCSVCLAGLDGFRRQQQEDRERLRAMEKLLASVEERQRHLAGLAVGRRPPQECCSPELGRRLAELERRLDVVAGSVTVLSGRRGTELGGAAGQGGHPPGYTSLASRLSRLEDRFNSTLGPSEEQEESWPGAPGGLSHWLPAARGRLEQLGGLLANVSGELGGRLDLLEEQVAGAMQACGQLCSGAPGEQDSQVSEILSALERRVLDSEGQLRLVGSGLHTVEAAGEARQATLEGLQEVVGRLQDRVDAQDETAAEFTLRLNLTAARLGQLEGLLQAHGDEGCGACGGVQEELGRLRDGVERCSCPLLPPRGPGAGPGVGGPSRGPLDGFSVFGGSSGSALQALQGELSEVILSFSSLNDSLNELQTTVEGQGADLADLGATKDRIISEINRLQQEATEHATESEERFRGLEEGQAQAGQCPSLEGRLGRLEGVCERLDTVAGGLQGLREGLSRHVAGLWAGLRETNTTSQMQAALLEKLVGGQAGLGRRLGALNSSLQLLEDRLHQLSLKDLTGPAGEAGPPGPPGLQGPPGPAGPPGSPGKDGQEGPIGPPGPQGEQGVEGAPAAPVPQVAFSAALSLPRSEPGTVPFDRVLLNDGGYYDPETGVFTAPLAGRYLLSAVLTGHRHEKVEAVLSRSNQGVARVDSGGYEPEGLENKPVAESQPSPGTLGVFSLILPLQAGDTVCVDLVMGQLAHSEEPLTIFSGALLYGDPELEHAKDEL
# Assays:
# [1] = test system: TGF-β activated p15 promoter; test: p15-lux luciferase reporter in MEF primary cultures from wild type and emilin1 -/- mice; assay type: cell-based, mouse; conditions: FIG. 3A, 3B
# From the text: MEF primary cultures were transfected with plasmid p15-lux (p15-luciferase) (Li et al., 1995) driving transcription of the luciferase marker gene under control of the p15^INK4B gene promoter. Since the p15 promoter is activated by TGF-β (i.e. p15 is a TGF-β target gene), the presence of the growth factor induces higher luciferase levels, which can be measured with a luminometer.
# pro TGF-β1 processing = target: T1, pro TGF-β1 processing (Homo sapiens, UniProt P01137); test: Western blot of pro TGF-β1 conversion to LAP and mature TGF-β1 in transfected HEK293T cells; assay type: cell-based; conditions: HEK293T supernatant, anti-TGF-β1 Western-blot, emilin-1 cotransfected, peptide at 100 μM
# T1 construct: Flag; expressed in transfected cells; host or cells: HEK293T (A6); mouse embryo fibroblasts (A8)
# T1 sequence (P01137 30-390): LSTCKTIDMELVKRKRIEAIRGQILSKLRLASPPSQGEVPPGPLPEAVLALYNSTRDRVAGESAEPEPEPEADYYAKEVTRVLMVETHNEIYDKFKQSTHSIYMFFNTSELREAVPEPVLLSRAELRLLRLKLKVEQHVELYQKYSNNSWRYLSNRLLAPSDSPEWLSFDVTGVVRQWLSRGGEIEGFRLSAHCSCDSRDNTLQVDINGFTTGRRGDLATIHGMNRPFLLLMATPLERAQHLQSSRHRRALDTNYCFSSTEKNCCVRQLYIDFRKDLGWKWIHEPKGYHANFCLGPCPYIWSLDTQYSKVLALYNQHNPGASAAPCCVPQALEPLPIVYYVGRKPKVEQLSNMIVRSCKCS
# From the text: (§1) • The construct for emilin 1 expression was engineered in pCS2 vector (Rupp R. A. et al., 1994, Genes Dev 8, 1311-1323) (for a physical map of the vector, see the site faculty.washington.edu/rtmoon/pcs2+.html) as described (Zanetti M. et al., 2004, Mol Cell Biol 24, 638-650); the vector used for proTGF-β expression in MEF and HEK293T cells is pCDNA3.1 (Invitrogen). Vectors containing the coding sequence for human pro TGF-β are described in Young and Murphy-Ullrich, 2004 (Young and Murphy-Ullrich, 2004, J Biol Chem 279, 38032-38039). The human pro TGF-β cDNA sequence is reported in the data bank (NP_000660; protein 000651). • The vector for Furin/SPC 1 expression is pCDNA3.1 (Invitrogen) • p15 and CAGA 12 promoter fragments are described in Jonk L. J. et al., 1998, J Biol Chem 273, 21145-21152 […]. • Constructs containing Flag sequences are described in Young G. D and Murphy-Ullrich J E, 2004, J Biol Chem 279, 38032-38039. • Constructs containing the Flag epitope (e.g. Flag-EMI-domain-GPI) were prepared as described in Chubet R G et al. Biotechniques 1996; 20(1):136-141 and detected by anti-Flag antibody (Kodak Inc.). • Constructs containing the GPI anchor were prepared as described in the Manual “Current Protocols in Cell Biology” Howard R. Petty Wayne State University, Detroit, Mich.; Juan S. Bonifacino, Mary Dasso, Joe B. Harford, Jennifer Lippincott-Schwartz, and Kenneth M. Yamada (eds.), Copyright C 2003 John Wiley & Sons, Inc. (GPI-anchor). In the construct Flag-EMI domain-GPI, the Flag sequence was inserted at the N-terminus after the signal peptide, while the GPI-anchor sequence was placed at the COOH-terminal end. • The construct emilin 1-KDEL was obtained by inserting the KDEL coding sequence described by Munro S., and Pelham, H. R., 1987, Cell 48, 899-907 upstream the emilin 1 STOP codon. • The construct containing the type II TGF-β receptor with HA epitope was described in Wrana J. L. et al., 1994, Nature 370, 341-347. • supplier of the drugs used: SP600125 (Calbiochem), SB431542 (Tocris). • Purified recombinant LAP and TGF-β1 proteins were purchased from (R&D Systems)
# To verify whether emilin or its EMI domain inhibit TGF-β or its precursor, HEK293T cells were cotransfected with plasmids driving the expression of pro TGF-β1 (fused to the FLAG-domain, even though the antibody used were directed at LAP and TGF-β proteins) and emilin-1 (or EMI-domain). […] The anti-Flag antibody used was obtained from Kodak Inc; for the preparation of Flag constructs, see Younjg and Murphy-Ullrich (Young and Murphy-Ullrich, 2004).
# As reported in the summary scheme above FIG. 5A, HEK293T cells were transfected with the plasmid encoding pro TGF-β1 (lane 1) and cotransfected with emilin-1 (lane 3) or treated with decanoyl-RVKR-CMK peptide (Decanoyl-Arg-Val-Lys-Arg-chloromethylketone, Alexis Corporation, Lausen, Switzerland) (lane 2) at a concentration of 100 μM. The peptide is an irreversible and competitive inhibitor of furin proprotein convertase and of other SPC family members (Proprotein Convertase); in addition, it inhibits pro-MMP2 dependent furin activation. The supernatant was then loaded on SDS-PAGE and detected by Western-blot with anti-TGF-β1 antibody. […] An increase of the precursor band in lanes 2 and 3 is […] to the decrease of TGF-β. Therefore it can be concluded that this assay detects an effect of emilin-1 on TGF-β1 processing that is similar to the effect of Furin inhibitors.
# pro TGF-β1 [2] = test: Western blot of culture medium of MEF (-/- or +/+) transfected with Flag-proTGF-β1; assay type: cell-based, mouse; conditions: anti-Flag / anti-LAP, FIG. 5C
# Procedure: In a subsequent experiment, Mouse Embryo Fibroblasts (MEF) derived from ko (−/−) or wild type (+/+) mice were transfected with a plasmid encoding Flag-proTGF-β1; the Furin inhibitor decanoyl-RVKR-CMK was added to the indicated samples. The culture medium was then subjected to western blotting with anti-Flag (FIG. 5C, upper inset) or anti-LAP (middle inset) antibody. […] To control the expression levels, western blot (in the lower inset) with an anti-β gal antibody was developed instead.
# [3] = target: T2, pro TGF-β1 (human TGF-β1 precursor) (human, UniProt P01137 30-390); test: co-immunoprecipitation with anti-Flag antibodies from HEK293T cell extracts, western blot with anti-LAP antibodies
# T2 construct: Expressed from pCDNA3.1 in HEK293T cells; also called TGF-β precursor; Flag-proTGF-β1
# T2 sequence (P01137 30-390): as above
# Procedure: To verify whether TGF-β or its precursor is the emilin target, HEK293T cells were transfected with a plasmid encoding pro TGF-β1 alone or with an expression plasmid for Flag-EMI domain-GPI. Cell extracts were prepared and subjected to the immunoprecipitation procedure with anti-Flag antibodies, as described in example 2. Immunoprecipitates were subjected to SDS-PAGE and Western blotting (WB) with anti-LAP antibodies.
# pro TGF-β1 [4] = test: CAGA12-lux luciferase reporter in HEK293T cells co-transfected with pro TGF-β1 vector; assay type: cell-based, human; conditions: CAGA12-lux and CMV-lacZ, FIG. 6C
# From the text: as §1
# To verify how emilin or the EMI domain can contrast TGF-β1 activity independently from receptor binding, HEK293T cells were transfected with a construct coding luciferase placed under control of a TGF-β activated promoter: CAGA12-lux (Jonk et al., 1998) alone or in combination with a emilin1 expression vector (500 ng) as shown in FIG. 2B. After transfection, cells were treated (black bar) or not treated (white bar) with 5 ng/ml recombinant TGF-1 (lanes 1 and 2). Column bars from 3 to 6 report luciferase expression values in experiments with cells co-transfected with the expression vector for emilin1 (or EMI-domain or emilin1ΔEMI) alone (white bars) or in combination with the vector encoding pro TGF-β1 (black bars). Values show the mean±st. dev.
# As further validation of the above observations, HEK293T cells were cotransfected with expression plasmids carrying the cDNAs shown in the summary scheme above the figure, along with CAGA12-lux and CMV-lacZ constructs, and luciferase expression levels were measured.
molecule,measurement,setting,value
NC(=O)c1ccc(-c2nc(-c3ccc4c(c3)OCO4)c(-c3ccccn3)[nH]2)cc1 [SB431542],p15-lux transcriptional response in normal versus emilin1 -/- MEF cells after drug treatment,[1],a similar response is measured in normal and mutant cells
"Decanoyl-Arg-Val-Lys-Arg-chloromethylketone [decanoyl-RVKR-CMK, reference compound]",Intensity of the band corresponding to mature TGF-β1,pro TGF-β1 processing; FIG. 5A,decreases
same,Precursor (pro TGF-β) band,pro TGF-β1 processing; FIG. 5A lanes 2 and 3,increase
same,pro TGF-β1 levels in culture medium,pro TGF-β1 [2],results in increased pro TGF-β1 levels
B1,binding result,[3],binds
B2,Luciferase expression stimulated by transfected pro TGF-β,pro TGF-β1 [4],abolishes its inhibitory action on the effects of pro TGF-β

# From patent publication US20090036382A1, “TGF-Beta Modulators and Use Thereof” (Universita' Degli Studi Di Padova, priority 2006, published 2009)
